A short description of assay [1]: Tested in vitro against HIV-1 LAI from MT-4 cells using MTT assay. (Tetrazolium dyes change colour on reduction, which living cells bring about.)
A short description of assay [2]: Tested in vitro against HIV-1 MDR using MAGI assay.

Turning to `C#C[C@]1(CO)O[C@@H](n2cc(CC)c(=O)[nH]c2=O)C[C@H]1O`, in assay [1], the concentration giving a half-maximal response (EC50) is > 360000 nM.
On the same count and under the same terms, then `C#C[C@]1(CO)O[C@@H](n2cc(Cl)c(=O)[nH]c2=O)C[C@H]1O`, with 6000 nM.
For the molecule `C#C[C@]1(CO)O[C@@H](n2cc(F)c(N)nc2=O)C[C@H]1O` [4-Amino-1-(5-ethynyl-4-hydroxy-5-hydroxymethyl-tetrahydro-furan-2-yl)-5-fluoro-1H-pyrimidin-2-one], the EC50 in assay [2] is 9 nM; in assay [1] it was 30 nM.
For `C#C[C@]1(CO)O[C@@H](n2cc(C)c(=O)[nH]c2=O)C[C@H]1O` [1-(5-Ethynyl-4-hydroxy-5-hydroxymethyl-tetrahydro-furan-2-yl)-5-methyl-1H-pyrimidine-2,4-dione] the same measures were 240 nM and 610 nM.
Consider `C#C[C@]1(CO)O[C@@H](n2cc(F)c(=O)[nH]c2=O)C[C@H]1O`, for which the EC50 in assay [1] is > 10000 nM.
Consider `C#C[C@]1(CO)O[C@@H](n2cc(C)c(N)nc2=O)C[C@H]1O` [4-Amino-1-(5-ethynyl-4-hydroxy-5-hydroxymethyl-tetrahydro-furan-2-yl)-5-methyl-1H-pyrimidin-2-one], for which the EC50 turned out to be 4.5 nM in assay [2] and 11 nM in assay [1].
For the molecule `C#C[C@]1(CO)O[C@@H](n2cnc3c(=O)[nH]cnc32)C[C@H]1O` [9-(5-Ethynyl-4-hydroxy-5-hydroxymethyl-tetrahydro-furan-2-yl)-9H-purin-6-ol], the EC50 was determined as 650 nM in assay [2] and 150 nM in assay [1].
For `C#C[C@]1(CO)O[C@@H](n2cnc3cncnc32)C[C@H]1O` [2-Ethynyl-2-hydroxymethyl-5-purin-9-yl-tetrahydro-furan-3-ol] the same measures were 145000 nM and 117000 nM.
Take `C#C[C@]1(CO)O[C@@H](n2cnc3c(=O)[nH]c(N)nc32)C[C@H]1O` [2-Amino-9-(5-ethynyl-4-hydroxy-5-hydroxymethyl-tetrahydro-furan-2-yl)-9H-purin-6-ol]: it took 1.4 nM to reach a half-maximal effect in assay [1] (EC50).
Still for that read-out and setting: then `C#C[C@]1(CO)O[C@@H](n2cc(Br)c(=O)[nH]c2=O)C[C@H]1O`, with 2300 nM.
`Cc1cn([C@H]2C[C@H](N=[N+]=[N-])[C@@H](CO)O2)c(=O)[nH]c1=O` [1-((2R,4S,5S)-4-Azido-5-hydroxymethyl-tetrahydro-furan-2-yl)-5-methyl-1H-pyrimidine-2,4-dione]: the results for the half-maximal effective concentration (EC50) in assay [2] and in assay [1] were 24900 nM and 38 nM, respectively.
As for `C#C[C@]1(CO)O[C@@H](n2cc(I)c(=O)[nH]c2=O)C[C@H]1O` [1-(5-Ethynyl-4-hydroxy-5-hydroxymethyl-tetrahydro-furan-2-yl)-5-iodo-1H-pyrimidine-2,4-dione], the values for the EC50 in assay [2] and in assay [1] were 620 nM and 340 nM, respectively.
For `C#C[C@]1(CO)O[C@@H](n2ccc(N)nc2=O)C[C@H]1O` [4-Amino-1-(5-ethynyl-4-hydroxy-5-hydroxymethyl-tetrahydro-furan-2-yl)-1H-pyrimidin-2-one] the same measures were 1.5 nM and 4.8 nM.
Regarding `C#C[C@]1(CO)O[C@@H](n2cnc3c(N)ncnc32)C[C@H]1O` [5-(6-Amino-purin-9-yl)-2-ethynyl-2-hydroxymethyl-tetrahydro-furan-3-ol], in assay [1], the response was half-maximal at 12 nM (EC50).
Take `C#C[C@]1(CO)O[C@@H](n2cnc3c(N)nc(N)nc32)C[C@H]1O` [5-(2,6-Diamino-purin-9-yl)-2-ethynyl-2-hydroxymethyl-tetrahydro-furan-3-ol]: the concentration giving a half-maximal response (EC50) in assay [2] stood at 1.3 nM; in assay [1] it was 0.3 nM.

What is called EC50 is the concentration needed to bring the measured effect to its halfway point. A high value points to a need for much substance.

Source of the values: BindingDB's records for doi:10.1021/jm000209n (Tohoku University, 2000).
